Assay: xn = mol fraction of the nth substance listed
Conditions: 100 kPa

CCCCCCCC[P+](CC)(CC)CC.O=[N+]([O-])c1cn[n-]c1 + COCCOCCOCCOCCOC
viscosity [mPa·s]
Conditions	278.15 K	283.15 K	288.15 K	293.15 K	298.15 K	303.15 K	308.15 K	313.15 K	318.15 K	323.15 K
x2 = 0	1340	–	–	398	282	207	155	119	–	75
x2 = 0.051	1010	666	452	317	229	–	130	101	80	65
x2 = 0.102	693	471	–	234	172	130	101	80	64	52
x2 = 0.199	395	277	199	147	112	87	–	–	–	–
x2 = 0.3	229	166	123	94	73	58	–	–	–	–
x2 = 0.404	129	–	74	59	–	–	–	–	–	–
x2 = 0.503	–	60	–	–	–	–	–	–	–	–

CCCCCC[n+]1ccn(C)c1.O=S(=O)([N-]S(=O)(=O)C(F)(F)F)C(F)(F)F + COCCOCCOCCOCCOC
x2 = 0
Conditions	viscosity [mPa·s]
278.15 K	204
283.15 K	151
288.15 K	115
293.15 K	89

CCCCCC[n+]1ccn(C)c1C.O=S(=O)([N-]S(=O)(=O)C(F)(F)F)C(F)(F)F + COCCOCCOCCOCCOC
Conditions	viscosity [mPa·s]
278.15 K, x2 = 0	485
278.15 K, x2 = 0.102	370
278.15 K, x2 = 0.205	251
278.15 K, x2 = 0.306	161
278.15 K, x2 = 0.399	109
278.15 K, x2 = 0.499	70
278.15 K, x2 = 0.599	48
283.15 K, x2 = 0	335
283.15 K, x2 = 0.102	258
283.15 K, x2 = 0.205	177
283.15 K, x2 = 0.306	116
283.15 K, x2 = 0.399	81
283.15 K, x2 = 0.499	53
288.15 K, x2 = 0	236
288.15 K, x2 = 0.102	184
288.15 K, x2 = 0.205	129
288.15 K, x2 = 0.306	86
288.15 K, x2 = 0.399	61
293.15 K, x2 = 0	172
293.15 K, x2 = 0.205	96
298.15 K, x2 = 0.205	74
303.15 K, x2 = 0	99
303.15 K, x2 = 0.102	80
303.15 K, x2 = 0.205	58
308.15 K, x2 = 0	78
313.15 K, x2 = 0	63
313.15 K, x2 = 0.102	52

CCCC[P+](CC)(CC)CC.Cc1ncc([N+](=O)[O-])[n-]1 + COCCOCCOCCOCCOC
viscosity [mPa·s]
Conditions	278.15 K	283.15 K	288.15 K	293.15 K	298.15 K	303.15 K	308.15 K	313.15 K	318.15 K	323.15 K
x2 = 0.048	–	975	634	428	299	215	–	121	94	74
x2 = 0.102	972	–	421	291	–	153	116	–	71	57
x2 = 0.201	516	350	243	175	–	99	77	62	–	–
x2 = 0.299	258	183	134	100	76	60	–	–	–	–
x2 = 0.401	134	–	74	57	–	–	–	–	–	–
x2 = 0.501	74	–	–	–	–	–	–	–	–	–

CCCn1cc[n+](C)c1C.O=[N+]([O-])c1cn[n-]c1 + COCCOCCOCCOCCOC
viscosity [mPa·s]
Conditions	278.15 K	283.15 K	288.15 K	293.15 K	298.15 K	303.15 K	308.15 K	313.15 K	318.15 K	323.15 K
x2 = 0.05	5420	2660	1400	798	487	314	213	150	111	84
x2 = 0.1	3220	–	–	552	350	234	163	118	90	70
x2 = 0.201	1300	–	–	287	194	137	100	–	59	–
x2 = 0.302	546	338	218	149	106	79	61	–	–	–
x2 = 0.399	–	167	115	83	–	–	–	–	–	–
x2 = 0.499	125	–	64	–	–	–	–	–	–	–
x2 = 0.6	65	–	–	–	–	–	–	–	–	–

Source: a compilation of properties of binary mixtures (doi:10.1021/acs.jced.6b00596)
